Measured values reported in US7666582B2, “IdeS, an IgG-degrading enzyme of Streptococcus pyogenes” (Hansa Medical Research AB, priority 2001, dated 2010).
“Also recorded” adds a separate entry of the source. Read-outs that look alike come from different tables or passages of the source. * marks the point of attachment. code Z = not defined here; CHN2 = [N-]=[N+]=C*

Experiments:
S. pyogenes [1] = details: in vivo; cited from earlier work
S. pyogenes [2] = details: in vitro; cited from earlier work
IdeS [3] = assay: Proteinase inhibition assay (IgG cleavage by IdeS, SDS-PAGE); assay type: biochemical, S. pyogenes; details: 30 min preincubation, IdeS 0.3 μg/ml
Protocol: Partially purified IdeS (0.3 μg/ml) was incubated with either 20 nM iodoacetic acid, Z-LVG-CHN2 (Björck et al., 1989) at 0.4 mg/ml in 1% DMSO, or E64 (40 μM). The tubes were kept in the dark and incubated for 30 min at room temperature. As controls, IdeS was also kept in phosphate buffered saline (PBS) or in 1% DMSO, the solvent for Z-LVG-CHN2. After 30 min, 5 μl of 10 mg/ml IgG (Sigma) were added, and the volume was adjusted to 100 μl with PBS. Incubation was continued for 60 min at 37° C. The reaction was stopped by the addition of SDS-PAGE sample buffer and samples were analyzed by 12% SDS-PAGE.

[4] = tested on: IgG-cleaving activity of S. pyogenes strain AP1 growth medium; assay: Cleavage of IgG in AP1 growth medium with E64 added; assay type: biochemical; details: E64 added to the AP1 growth medium, TH medium with 10% human plasma
SpeB = SpeB (Streptococcus pyogenes, UniProt P0C0J0); details: cited from earlier work
papain = molecular target: T1, papain (Carica papaya, UniProt P00784); details: cited from earlier work
T1 sequence (P00784 134-345): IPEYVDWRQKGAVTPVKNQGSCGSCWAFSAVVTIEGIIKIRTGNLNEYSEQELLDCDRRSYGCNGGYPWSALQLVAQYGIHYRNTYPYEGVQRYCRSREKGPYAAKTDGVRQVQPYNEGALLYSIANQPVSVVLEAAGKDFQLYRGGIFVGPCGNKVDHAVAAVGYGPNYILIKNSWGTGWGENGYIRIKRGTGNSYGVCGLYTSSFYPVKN

IdeS [5] = assay: Inhibition of IdeS activity by IgG-binding streptococcal proteins; assay type: biochemical, S. pyogenes

Compound	inhibition of streptococcal growth (S. pyogenes [1])	inhibition of streptococcal growth (S. pyogenes [2])	inhibition of the proteolytic activity of SpeB (SpeB)	other results
CC(C)C[C@H](NC(=O)[C@H]1O[C@@H]1C(=O)O)C(=O)NCCCCN=C(N)N (relative stereo) [E64, trans-epoxysuccinyl-L-leucylamido-(4-Guanidino) butane]	only Z-LVG-CHN2 inhibited streptococcal growth	only Z-LVG-CHN2 inhibited streptococcal growth	efficiently blocked; also recorded: irreversibly block the proteolytic activity of SpeB	inhibition of the activity of IdeS (IgG cleavage) (IdeS [3]; E64 (40 μM)): had no effect on the enzyme; also recorded: not affected; inhibition of the cleavage of IgG (31 kDa product) [4]: did not inhibit the cleavage of IgG
O=C(O)CI [iodoacetic acid]	–	–	–	inhibition of the activity of IdeS (IgG cleavage) (IdeS [3]; 20 nM iodoacetic acid): efficiently inhibited the activity of IdeS
Z-LVG-CHN2: peptide derivate based on the inhibitory reactive site of cystatin C, carrying a diazomethyl ketone group ({code Z}-Leu-Val-Gly-CHN2; reading uncertain)	inhibited streptococcal growth	inhibited streptococcal growth	irreversibly inhibit; also recorded: irreversibly block the proteolytic activity of SpeB	inhibition of the activity of IdeS (IgG cleavage) (IdeS [3]; Z-LVG-CHN2 at 0.4 mg/ml in 1% DMSO): efficiently inhibited the activity of IdeS; also recorded: is inhibited; inhibition of papain (papain): irreversibly inhibit
protein G: streptococcal protein that binds the Cγ2-Cγ3 interphase region of IgG	–	–	–	inhibition of IdeS activity (IdeS [5]): cannot inhibit IdeS activity
